Assay results: patent publication US20250066395A1, “Detecting and Separating Rare Earth Metal Mixtures” (Board of Regents, The University of Texas System, priority 2023, published 2025)

Text: We have selected water and ethyl acetate (EtOAc) for their “green solvent” properties of being safe to handle, eco-friendly, little to no hazardous waste, etc.

Which Soluble in water does the source give for scandium here?
Its Soluble in water is “soluble”.

Which Soluble in water does the source give for yttrium here?
Its Soluble in water is “soluble”.
